# Measurements reported in patent publication US5336485A, “Method for protecting animals against tacrine induced cytotoxic injury using sterol compounds” (priority 1993, dated 1994).
# Counter-ions that a name gives are not always drawn. Like-named read-outs stand apart in the source and are kept apart here.
# Tests used:
# rat hepatocytes [1] = experiment: EMS-induced cytotoxicity (LDH leakage/cell death) in rat hepatocyte suspensions; settings: for inhibition at 25 µM: Rattus norvegicus, Hepatocyte; for inhibition at 25 µM / Percent Cytoprotection: 5 h; for Cell Death: 5 Hrs, alpha-TS 25, methyl ester 50, cholesteryl succinate 100, monomethyl/dimethyl succinate 250 μM
# Description: To determine if alpha-TS is a cytoprotective agent under physiological conditions, liver cells were incubated with Waymouth's medium containing approximately 1 mM extracellular Ca^2+ in the presence and absence of alpha-TS.
# (§1) At each time-point, rapid separation of viable from non-viable hepatocytes and medium was accomplished by the dibutyl phthalate centrifugation method. Cell viability was monitored hourly by measuring LDH leakage with a Cobas Analyzer and intracellular [K^+ ]with a flame photometer. LDH was routinely measured in the medium while intracellular K^+ was measured in the 10% perchloric acid lysate of viable cells. Lipid peroxidation was determined by measuring TBA reactants in the medium. […] The samples were diluted with 0.3 ml 1% ascorbate in 0.1 M SDS, 0.4 ml ethanol, sonicated and extracted once with 0.8 ml hexane. Next, the hexane extract was evaporated to dryness with N2, the residue dissolved in 2.5% ascorbate in methanol (1 ml) and analyzed (100 μl) by high-performance liquid chromatograph (HPLC). […] The mobile phase, 95% MeOH was run isocratically and the HPLC retention times for delta and alpha-tocopherol were approximately eleven and sixteen minutes, respectively. […] Following the addition of 0.2 ml 4 M HC1, the neutralized KOH-MeOH extracted with 0.8 ml hexane. […] A standard curve for each tocopherol congener was run with every assay. […] Only viable cells were monitored in the laboratory procedures.
# To determine the relative cytoprotective potency of various tocopherol derivatives, the effect of varying doses of a tocopherol analog on the protection against EMS-induced toxicity was examined in vitro on rat hepatocyte suspensions. Specifically, the following ionizable tocopherol congeners were tested: alpha-TS, alpha tocopheryl glutarate (alpha-TG), and alpha tocopheryl phosphate (alpha-TP). […] 0.1 nmoles is the lower detection limit.
# In vitro experiments were conducted with a variety of different tocopherol and succinate analogs to determine which were protective against EMS induced toxicity. After five hours of incubation with 50 mM EMS and 25μM of a tocopherol or succinate analog, cytoprotection was determined by comparing the percentage of LDH leakage from control hepatocytes (vehicle only, assumed 100% protection) with the EMS only treated cells (assumed 0% protection).
# An in vitro experiment with rat hepatocyte suspensions was performed to determine the effect of esterase inhibitors on alpha-TS.
# (§2) Rat hepatocyte suspensions were subjected to 50 mM EMS and the percentage of cell death, the percentage of intracellular K^+ (a metabolic parameter as discussed above), the depletion of ATP and the effect on lipid peroxidation were monitored.
# male Sprague-Dawley rats = experiment: CCl4 induced lethality in rats; assay type: in vivo, rat; settings: for Survival after CCl4 treatment: 100 mg/kg ip 24 h prior, […] CCl4 oral; for Days Survived after CCl4: 24 and 1 hour prior
# Description: The in vivo effect of alpha-TS was tested by administering a lethal oral dose of carbon tetrachloride (CC14) to male Sprague-Dawley rats.
# In the experiment described in Table 3, a single dose of alpha-TS dissolved in peanut oil:ethanol (3:2) was given to male Sprague-Dawley rats. The dose was given 24 hours prior to an orally administered CCl4 challenge dissolved in peanut oil. Two to nine animals were tested per treatment. The control group comprised rats pretreated with the vehicle only. Survival was monitored for at least 7 days after the toxic insult.
# In vivo experiments were performed to determine if the time the ionizable tocopherol analog (alpha-TS) is administered affects the cytoprotective functions. Male Sprague-Dawley rats were given a 100 mg/kg intraperitoneal dose of a tocopherol or succinate analog and were given a lethal dose of CCl4 (2.9g/kg by oral gavage). Table 7 contrasts the times of administration of the tocopherol or succinate analog and the times of administration of the lethal dose of CCl4 with the survival of the rats in the study (3to 6 rats per protective treatment).
# Several tocopherol and succinate analogs were tested for CCl4 induced lethality. A single dose of the tocopherol or succinate analog was administered twenty four hours prior to orally administering 2.9 g CCl4 /kg body weight. Three to six animals were analyzed per treatment. The rats were monitored for seven days. […]
# liver = experiment: CCl4 induced hepatotoxicity in rats (serum AST/ALT); assay type: in vivo, rat
# Description: In vivo experiments were performed to determine if alpha-TS administration protects the liver from chemical toxicity. The liver is the target organ for CCl4. CCl4 is a hepatotoxic agent that induces centrilobular liver necrosis through its metabolism to free radicals. Male Sprague-Dawley rats were given an intraperitoneal dose (100 mg/kg) of a tocopherol analog 24 hours prior to a CCl4 challenge (2.9g/kg given by oral garage). Forty eight hours after the challenge, the rats were sacrificed and the levels of aspartate aminotransferase (AST) and alanine aminotransferase (ALT) were measured.
# As discussed above, SGOT levels provide a clinical assessment of hepatotoxicity (liver damage).
# Succinate analogs were administered to male Sprague-Dawley rats 20 hours prior to a 1 g CCl4 /kg body weight oral challenge and the AST and ALT serum enzyme levels were measured 48 hours after the challenge.
# Similar to the experiments were described above, the ionizable congeners were administered to Sprague-Dawley rats by i.p. injection of a 100 mg ionizable congener/kg body weight dose 20 hours prior to oral administration of a 1 g/kg dose of CCl4, and the AST and ALT levels were measured 48 hours after the CCl4 challenge.
# rat hepatocytes [2] = experiment: EMS-induced lipid peroxidation in rat hepatocyte suspensions; assay type: cell-based; settings: 50 mM EMS, 5 Hrs; concentrations as cell death (Table 15)
# Description: as §1, §2
# [3] = Tissue distribution of alpha-tocopherol and alpha-tocopherol ester in rats; assay type: in vivo, rat; settings: K+ salt in saline, 1 dose 100 mg/kg, 24 h
# Description: 100 mg/kg body weight of a tocopherol analog was administered to Sprague-Dawley rats using a peanut oil:ethanol vehicle (3:2). Twenty four hours later the rats were sacrificed and the accumulation of the tocopherol analog in the liver was determined.
# A similar in vivo experiment to that discussed in conjunction with Table 5 was performed to determine if other tissues accumulate alpha-TS. Male Sprague-Dawley rats were given a 100 mg/kg dose of alpha-TS using a variety of chemical forms and vehicles. A variety of techniques were used to administer the alpha-TS. Twenty four hours later the rats were sacrificed and the tissues were tested for alpha-TS accumulation.
# [4] = read-out: Percent Cytoprotection, 25 μM, 50 mM EMS, 5 h
# [5] = 100 mg/kg, single dose 24 h prior, CCl4 […]
# [6] = 100 mg/kg ip, 48 h after 1 g/kg CCl4 (Table 31)
# [7] = 1 g/kg, single dose 24 h prior, CCl4 […]
compound,measurement,setting,value
"Cc1cc(O)cc2c1OC(C)(CCCC(C)CCCC(C)CCCC(C)C)CC2 (centres unmarked) [Delta-Tocopherol, reference compound]",inhibition at 25 µM,rat hepatocytes [1]; read-out: Percent Cytoprotection,0%
"Cc1c(C)c2c(c(C)c1OC(=O)CCCC(=O)O)CCC(C)(CCCC(C)CCCC(C)CCCC(C)C)O2 (stereo not drawn) [Alpha-Tocopherol Glutarate, alpha-tocopherol monoglutarate]",inhibition at 25 µM,rat hepatocytes [1]; [4],55 ± 15%
same,Survival after CCl4 treatment,male Sprague-Dawley rats,No
same,Days Survived After CCl4 Treatment,male Sprague-Dawley rats; [5],2 days
"CC(C)CCC[C@@H](C)[C@H]1CC[C@H]2[C@@H]3CC=C4C[C@@H](O)CC[C@]4(C)[C@H]3CC[C@]12C [Cholesterol, reference compound]",inhibition at 25 µM,rat hepatocytes [1]; [4],30 ± 16%
same,ALT,liver; [6],1.16 ± 0.41 10^3 units/L
same,AST,liver; [6],3.03 ± 0.84 10^3 units/L
same,SGOT Levels,"liver; 100 mg/kg ip, 48 h after 1.0 g/kg CCl4",4.08 ± 2.45 10^3 units/L
same,protection against CCl4 hepatotoxicity (in words),"liver; rats, serum enzyme levels",provided no protection
same,Survival after CCl4 treatment,male Sprague-Dawley rats,No
same,Days Survived After CCl4 Treatment,male Sprague-Dawley rats; [5],2 days
Cc1c(C)c2c(c(C)c1OC(=O)CCC(N)=O)CC[C@@](C)(CCC[C@H](C)CCC[C@H](C)CCCC(C)C)O2 [Alpha-Tocopherol Succinamide],inhibition at 25 µM,rat hepatocytes [1]; [4],0%
"COC(=O)CCC(=O)OC [Dimethyl Succinate, reference compound]",Cell Death,rat hepatocytes [1]; 50 mM EMS,60 ± 1%
same,Days Survived after CCl4,male Sprague-Dawley rats; 1 g/kg,2 days
same,Days Survived After CCl4 Treatment,male Sprague-Dawley rats; [7],2 days
same,"cytoprotection (Table 7, in words)","male Sprague-Dawley rats; rat, in vivo",not cytoprotective
same,Lipid Peroxidation,rat hepatocytes [2],12.6 ± 0.2 nmolMDA/10^6 cells
"Cc1c(C)c2c(c(C)c1OC(=O)CC(C)C(=O)O)CC[C@@](C)(CCC[C@H](C)CCC[C@H](C)CCCC(C)C)O2 (stereo partly drawn) [Alpha-Tocopherol 3-Methyl Succinate, alpha-tocopheryl 3-methyl succinate]",inhibition at 25 µM,rat hepatocytes [1]; [4],70 ± 9%
same,Survival after CCl4 treatment,male Sprague-Dawley rats,No
same,Days Survived After CCl4 Treatment,male Sprague-Dawley rats; [5],2 days
"d-alpha-tocopheryl polyethylene glycol 1,000 succinate",Percent Cytoprotection,"rat hepatocytes [1]; 25 μM, 50 mM EMS",80 ± 15%
same,protection from lethal effects of EMS,"rat hepatocytes [1]; rat hepatocytes, 25 μM, 50 mM EMS",protection was observed against EMS-induced toxicity
same,Days Survived After CCl4 Treatment,"male Sprague-Dawley rats; 200 mg/Kg, iv, 24 h prior",> 7 days
same,Days Survived After CCl4 Treatment,"male Sprague-Dawley rats; 200 mg/kg, oral, 24 h prior",2 days
same,Days Survived After CCl4 Treatment,"male Sprague-Dawley rats; 100 or 200 mg/Kg, single dose 24 h prior",> 7 days
"Cc1cc(OC(=O)CCC(=O)O)cc2c1OC(C)(CCCC(C)CCCC(C)CCCC(C)C)CC2 (centres unmarked) [Delta-Tocopherol Succinate, Delta-tocopherol mono succinate]",inhibition at 25 µM,rat hepatocytes [1]; [4],70 ± 24%
"Cc1c(C)c2c(c(C)c1OC(=O)CCC(=O)O)CC[C@@](C)(CCC[C@H](C)CCC[C@H](C)CCCC(C)C)O2 [K + salt of Alpha-TS, Alpha-Tocopherol Succinate, K^+ Salt]",Percent Cytoprotection,"rat hepatocytes [1]; 25 μM, 50 mM EMS, K^+ Salt, 300 min, 25 µM",97 ± 3%
same,"alpha-TS, Blood",[3]; (c) ip,19 nmoles/gm of Tissue
same,"alpha-TS, Heart",[3]; (c) ip,18 nmoles/gm of Tissue
same,"alpha-TS, Kidney",[3]; (c) ip,15 nmoles/gm of Tissue
same,"alpha-TS, Liver",[3]; (c) ip,518 nmoles/gm of Tissue
same,"alpha-TS, Lung",[3]; (c) ip,60 nmoles/gm of Tissue
same,"alpha-TS, Plasma",[3]; (c) ip,24 nmoles/gm of Tissue
same,"alpha-TS, Blood",[3]; (d) iv,18 nmoles/gm of Tissue
same,"alpha-TS, Heart",[3]; (d) iv,24 nmoles/gm of Tissue
same,"alpha-TS, Kidney",[3]; (d) iv,27 nmoles/gm of Tissue
same,"alpha-TS, Liver",[3]; (d) iv,445 nmoles/gm of Tissue
same,"alpha-TS, Lung",[3]; (d) iv,385 nmoles/gm of Tissue
same,"alpha-TS, Plasma",[3]; (d) iv,30 nmoles/gm of Tissue
same,Days Survived After CCl4 Treatment,male Sprague-Dawley rats; [5],> 7 days
"COC(=O)CCC(=O)O [Monomethyl Succinate, reference compound]",Cell Death,rat hepatocytes [1]; 50 mM EMS,61 ± 5%
same,Days Survived after CCl4,male Sprague-Dawley rats; 1 g/kg,2 days
same,Days Survived After CCl4 Treatment,male Sprague-Dawley rats; [7],2 days
same,Lipid Peroxidation,rat hepatocytes [2],12.8 ± 1.0 nmolMDA/10^6 cells
